Assay results: patent US9254290B2, “Method for screening diabetes treating agent” (GWANGJU INSTITUTE OF SCIENCE AND TECHNOLOGY, priority 2010, dated 2016)
“Also recorded” adds a separate entry of the source.

Tests used:
3T3-L1 adipocytes [1] = experiment: 6-NBDG uptake screening in 3T3-L1 adipocytes, 96-well, fluorescent microplate reader; assay type: cell-based, murine; conditions: for effect on insulin-stimulated 6-NBDG uptake: 3 h pre-treatment with inhibitors; for NBDG uptake in adipocytes on re-testing of purified compounds: 250 nM-20 μM, compared with insulin and zinc sulfate; for effect of GLUT inhibitors (4,6-EDG, cytochalasin B) on compound-induced NBDG uptake: with 4,6-EDG (50 mM) or cytochalasin B
Method: 3T3-L1 murine fibroblasts were maintained in proliferation media, consisting of DMEM supplemented with 10% FBS, 50 units/mL penicillin and 50 μg/mL streptomycin. 3T3-L1 fibroblasts were induced to differentiate into adipocytes as follows: 48 h postconfluent cells (designated day 0) were cultured in DMEM supplemented 10% FBS, 0.5 mM 3-isobutyl-1-methyl-xanthine, 2 μg/ml dexamethasone, 1 μg/ml insulin, 50 units/mL penicillin and 50 μg/mL streptomycin for 2 days. Every 2 days thereafter, the cells were incubated with fresh DMEM supplemented with 10% FBS and 1 μg/ml insulin. 3T3-L1 adipocytes were used for experiments 8 days after the induction of differentiation.
(§1) Three cell lines were chosen to test if NBDG can be used to detect insulin-stimulated glucose uptake in a 96 well plate culture format, which is more suitable for cell-based screening to identify novel insulin mimetic compounds. The cell lines chosen were Huh7 hepatocytes, C2C12 myoblasts and 3T3-L1 pre-adipocytes, which represent the major body tissue types that are sensitive to the action of insulin (liver, muscle and fat). 10^4 cells/well were seeded in a black, 96 well tissue culture plate (BD Falcon, NJ, USA). C2C12 myoblasts and 3T3-L1 adipocytes were induced to undergo differentiation into myotubes and adipocytes, respectively, to compare the NDBG signal in proliferating and differentiated cells. NBDG uptake was measured following treatment with 10 nM or 100 nM insulin, and 1 μM or 10 μM rosiglitazone (an insulin-sensitizing agent), using a fluorescent microplate reader (SpectraMAX GeminiXS and SoftMax Pro V5 software, Molecular Devices, CA, USA). Cells were cultured in serum-free low glucose culture media for 3 h before the addition of insulin.
To test the NBDG-based screening system, a combinatorial chemical library of 576 triazine-based small molecules was screened at a concentration of 5 μM. The combinatorial library was provided by Professor Young-Tae Chang, Department of Chemistry, National University of Singapore.
To test if this screening protocol could detect new insulin mimetic compounds, a combinatorial chemical library of 576 triazine-based small molecules was screened.

3T3-L1 adipocytes [2] = experiment: Detection of apoptosis (Apo-TRACE staining, microplate quantification); assay type: cell-based, murine; conditions: 5 μM, 24 hrs
Method: 3T3-L1 pre-adipocytes were cultured to confluence in 24-well plates and induced to differentiate into adipocytes. The induction of apoptosis was detected using the Apo-TRACE™ Apoptotic Cell Staining Kit (Sigma-Aldrich, SL, USA), which employs a fluorescent compound that responds to alterations in plasma membrane potential and phospholipid scrambling, which are hallmarks of apoptotic cells. Apoptotic cells were visualized by microscopy under UV illumination (Olympus IX81, Japan) equipped with MetaMorph 7.5 image capture software (Molecular Devices, CA, USA)). Images were processed with Photoshop CS4 software (Adobe Systems Incorporated, CA, USA). Apoptosis was quantified by fluorescent microplate reader analysis of cell lysate.

3T3-L1 adipocytes [3] = experiment: Epinephrine-stimulated free fatty acid release assay; assay type: cell-based, murine; conditions: for inhibition of epinephrine-stimulated free fatty acid release: 5 μM compound, 10 μM epinephrine
Method: Epinephrine-stimulated free fatty acid (FFA) release from adipocytes was measured using the Free Fatty Acid Quantification Kit (Biovision, CA, USA), following the method previously described^13. Confluent 3T3-L1 adipocytes in a 24 well plate were cultured for 3 h in serum-free culture media. Adipocytes were then treated with 10 μM epinephrine dissolved in saline to induce FFA […] release. Drug of interest was added 10 min before the addition of epinephrine. Cell lysate was collected and 50 μL of the organic phase was used for assay. Palmitic acid was used to generate the standard curve.

3T3-L1 adipocytes [4] = experiment: Commercial enzyme-based glucose content assay (Biovision); assay type: cell-based, murine; conditions: tested in triplicate
Method: For comparison and validation of our new screening based on NBDG uptake, we used a commercial, enzyme-based glucose assay provided by Biovision Inc., CA, USA. 3T3-L1 adipocytes were seeded at 5×10^4 cells/well in a 96-well culture plate. 24 h later, culture media was changed and adipocytes were cultured in serum-free low glucose DMEM for 3 h prior to drug treatment. Cells were lysed with 100 μL Cell Lytic M (Sigma-Aldrich, SL, USA) and 50 μL lysate was used for assay.

[5] = tested on: human aortic endothelial cells (HAEC); experiment: Monocyte-endothelial cell adhesion assay (THP-1 monocytes, hyperglycemia); assay type: cell-based; conditions: 30 mM glucose; 5 μM compound for 3 hrs before THP-1 monocytes
Method: (§2) HAEC were exposed to hyperglycemia (30 mM glucose) for days and treated with 5 μM compounds AP-III-a4 or AP-I-h7 or 100 nM insulin for 3 hrs prior to addition of THP-1 monocytes. […] Data is representative of three independent experiments. 5 mM glucose=normoglycemia; 30 mM glucose=hyperglycemia (5 days treatment); AP-III-a4=hyperglycemia (5 days treatment) and 24 hrs treatment with 5 μM AP-III-a4; AP-I-h7=hyperglycemia (5 days treatment) and 24 hrs treatment with […]; MLB=hyperglycemia (5 days treatment) and 48 hrs treatment with 50 μM magnesium lithospermate B.
Human aortic endothelial cells were supplied by Cambrex (NJ, USA) and cultured in EBM-2 growth media supplemented with the EGM-2 bullet kit. […]
The adhesion of mouse inflammatory peritoneal (IP) exudate macrophages to endothelial cell monlayers was carried out as previously described.^14 Briefly, endothelial cells were cultured to confluence in 6-well culture plates and treated with drug with or without high glucose (30 mM for 48 h) culture media. […] The unbound cells were washed three times with serum-free RPMI-1640 medium, and the total number of adherent cells was counted in four randomly selected optical fields per well (100× magnification; Olympus microscope CKX41, Japan; microscopic images were captured with a DigiEye 330 digital camera (Dewinter, India) and Biowizard 4.3 software (Dewinter, India)). […]

VCAM-1 [6] = experiment: VCAM-1 expression in HAEC exposed to hyperglycemia (Western blot); assay type: cell-based, human; conditions: 30 mM glucose 5 days; 24 hrs treatment with 5 μM
Method: as §2
Human aortic endothelial cells were supplied by Cambrex (NJ, USA) and cultured in EBM-2 growth media supplemented with the EGM-2 bullet kit. THP-1 human monocytic cells were cultured in RPMI-1640 medium supplemented with […] 2-mercaptoethanol, 10% fetal bovine serum and antibiotics. Cells were cultured in growth media containing 5 mM glucose for the normoglycemia condition or 30 mM glucose for the hyperglycemia condition.
Proteins were separated by 10% SDS-PAGE and transferred onto […] nitrocellulose (Bio-Rad, CA, USA). Densitometry was carried out using TINA 2.10e software (Catholic University Medical College (GmBH), Germany).

[7] = tested on: insulin resistant 3T3-L1 adipocytes; experiment: NBDG uptake in adipocytes rendered insulin resistant with TNF-α; assay type: cell-based, murine
Excerpt: (§3) Error=SD. *=P<0.05 compared to 3T3-L1 adipocytes in the same treatment group. […] Data is representative of three independent experiments.

[8] = tested on: 3T3-L1 adipocytes and pre-adipocytes; experiment: Fluorescent microscope analysis of NBDG uptake in mixed cultures of adipocytes and pre-adipocytes; assay type: cell-based, murine; conditions: 10 μM compound; adipocytes vs pre-adipocytes (fibroblast-like)
Excerpt: as §3

3T3-L1 adipocytes [9] = experiment: 2-NBDG uptake in insulin-responsive cell lines, 96-well; assay type: cell-based, murine; conditions: 10 nM or 100 nM insulin, 30 min; compared to Huh7, C2C12 myoblasts/myotubes, 3T3-L1 pre-adipocytes
Method: as §1

[10] = tested on: human aortic endothelial cells (HAEC); conditions: cited from earlier work
VCAM-1 [11] = conditions: cited from earlier work
3T3-L1 adipocytes [12] = experiment: Necrosis / cell death by trypan blue exclusion; assay type: cell-based; conditions: 24 h after treatment
Method: Necrosis was detected by the ability of cells to exclude the dye, trypan blue. 3T3-L1 adipocytes were cultured to confluence in 6-well plates and treated with drug. Adipocytes were then harvested by trpsinization and resuspended in 1 mL PBS. A 50 μL aliquot was taken and stained with an equal volume of 0.4% trypan blue solution (Sigma, SL, USA). Cells that could not exclude dye were classified as necrotic and quantified using a hemocytometer.

CC1OC[C@H]2O[C@H](O)[C@H](O)[C@@H](O)[C@@H]2O1 (stereo partly drawn) [4,6-EDG, 4,6-ethylidine-D-glucose, reference compound]
effect on insulin-stimulated 6-NBDG uptake (3T3-L1 adipocytes [1]; 100 nM insulin): reduced insulin-stimulated uptake of 6-NBDG; also recorded: inhibited

NCCOCCOCCNC(=O)Cc1ccc(Nc2nc(NCc3ccc(F)cc3)nc(NCC3CCCCC3)n2)cc1 [AP-III-a4]
NBDG uptake in adipocytes on re-testing of purified compounds (3T3-L1 adipocytes [1]): can increase NBDG uptake; also recorded: promote NBDG uptake in adipocytes
effect of GLUT inhibitors (4,6-EDG, cytochalasin B) on compound-induced NBDG uptake (3T3-L1 adipocytes [1]): sensitive to exo- and endofacial inhibitors of GLUT
induction of apoptosis (3T3-L1 adipocytes [2]): did not induce apoptosis
concentration required to produce insulin mimetic activity in adipocytes (3T3-L1 adipocytes [3]): 5 µM
inhibition of epinephrine-stimulated free fatty acid release (3T3-L1 adipocytes [3]): could inhibit epinephrine-stimulated free fatty acid release; also recorded: inhibit 10 μM epinephrine-mediated FFA release
cellular glucose content (3T3-L1 adipocytes [4]): induced an increase in cellular glucose content
monocyte adhesion in hyperglycemic conditions [5]: decreased monocyte adhesion; also recorded: reduced monocyte adhesion
VCAM-1 expression / upregulation in hyperglycemic conditions (VCAM-1 [6]): decreased VCAM-1 upregulation; also recorded: reduced the expression of VCAM-1
sensitivity of compound-induced NBDG uptake to insulin resistance [7]: sensitive to the induction of insulin resistance
cell-type preference of NBDG uptake [8]: preferentially taken up in the adipocytes; also recorded: preferentially occurs in adipocytes rather than fibroblasts

O=S(=O)([O-])[O-].[Zn+2] [zinc sulfate, reference compound]
effect of GLUT inhibitors (4,6-EDG, cytochalasin B) on compound-induced NBDG uptake (3T3-L1 adipocytes [1]): reduced NBDG uptake

insulin: Insulin from bovine pancreas
sensitivity of 6-NBDG uptake in adipocytes to the agent (3T3-L1 adipocytes [1]; 1 μM rosiglitazone, 100 nM insulin): sensitive
2-NBDG uptake after insulin treatment (3T3-L1 adipocytes [9]): largest increase in 2-NBDG uptake
cellular glucose content (3T3-L1 adipocytes [4]): induced an increase in cellular glucose content
effect on monocyte-endothelial adhesion (literature) [10]: no inhibitory effect on monocyte-endothelial adhesion
effect on adhesion molecule expression in endothelial cells (literature) (VCAM-1 [11]): not to inhibit adhesion molecule expression

CCCCNc1nc(Nc2ccc(CC(=O)NCCOCCOCCN)cc2)nc(N2CCCCC2)n1 [AP-IV-e3]
NBDG uptake in adipocytes on re-testing of purified compounds (3T3-L1 adipocytes [1]): can increase NBDG uptake; also recorded: promote NBDG uptake in adipocytes
effect of GLUT inhibitors (4,6-EDG, cytochalasin B) on compound-induced NBDG uptake (3T3-L1 adipocytes [1]): sensitive to exo- and endofacial inhibitors of GLUT
induction of apoptosis (3T3-L1 adipocytes [2]): induced apoptosis
induction of cell death (trypan blue exclusion) (3T3-L1 adipocytes [12]): induced cell death

CCCCNc1nc(NCCc2ccccc2)nc(Nc2ccc(CC(=O)NCCOCCOCCN)cc2)n1 [AP-I-h7]
NBDG uptake in adipocytes on re-testing of purified compounds (3T3-L1 adipocytes [1]): can increase NBDG uptake; also recorded: promote NBDG uptake in adipocytes
effect of GLUT inhibitors (4,6-EDG, cytochalasin B) on compound-induced NBDG uptake (3T3-L1 adipocytes [1]): sensitive to exo- and endofacial inhibitors of GLUT
induction of apoptosis (3T3-L1 adipocytes [2]): did not induce apoptosis
concentration required to produce insulin mimetic activity in adipocytes (3T3-L1 adipocytes [3]): 5 µM
inhibition of epinephrine-stimulated free fatty acid release (3T3-L1 adipocytes [3]): could inhibit epinephrine-stimulated free fatty acid release; also recorded: inhibit 10 μM epinephrine-mediated FFA release
cellular glucose content (3T3-L1 adipocytes [4]): induced an increase in cellular glucose content
monocyte adhesion in hyperglycemic conditions [5]: decreased monocyte adhesion; also recorded: reduced monocyte adhesion
VCAM-1 expression / upregulation in hyperglycemic conditions (VCAM-1 [6]): decreased VCAM-1 upregulation; also recorded: reduced the expression of VCAM-1
sensitivity of compound-induced NBDG uptake to insulin resistance [7]: sensitive to the induction of insulin resistance
cell-type preference of NBDG uptake [8]: preferentially taken up in the adipocytes; also recorded: preferentially occurs in adipocytes rather than fibroblasts

C=C1[C@@H](C)[C@H]2[C@H](Cc3ccccc3)NC(=O)[C@]23OC(=O)/C=C/[C@H](O)CCC[C@@H](C)C/C=C/[C@H]3[C@@H]1O [cytochalasin B, reference compound]
effect on insulin-stimulated 6-NBDG uptake (3T3-L1 adipocytes [1]; 100 nM insulin): reduced insulin-stimulated uptake of 6-NBDG; also recorded: inhibited

NCCOCCOCCNC(=O)Cc1ccc(Nc2nc(NCC3CCCCC3)nc(N3CCCCC3)n2)cc1 [AP-IV-e4]
NBDG uptake in adipocytes on re-testing of purified compounds (3T3-L1 adipocytes [1]): can increase NBDG uptake; also recorded: promote NBDG uptake in adipocytes
effect of GLUT inhibitors (4,6-EDG, cytochalasin B) on compound-induced NBDG uptake (3T3-L1 adipocytes [1]): sensitive to exo- and endofacial inhibitors of GLUT
induction of apoptosis (3T3-L1 adipocytes [2]): induced apoptosis
induction of cell death (trypan blue exclusion) (3T3-L1 adipocytes [12]): induced cell death
